For 16 compounds, T/C results are on record in PubChem BioAssay AID212 (DTP/NCI, 2004).

Where “and” joins values, the source holds several entries; their conditions need not be identical. Identical values can stand only once. Records with an inconclusive call do not appear.

The subject of the experiment is BDF1 mice, colon carcinoma 38 sc, T/C %. Nature of the experiment: NCI In Vivo Anticancer Drug Screen. Data for tumor model Colon Carcinoma 38 (subcutaneous) in B6D2F1 (BDF1) mice. The settings on record: endpoint: median tumor weight (est.), higher = larger tumour. The procedure, abridged: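 Transplantable tumor in mice; compound-treated vs vehicle-dosed controls. Measured survival or tumor size; value = T ÷ C.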

[1] abbreviates: dose: 12.5 mg/kg/injection, schedule: Q07DX002 (ip), vehicle: saline with Tween-80.
[2] abbreviates: dose: 25.0 mg/kg/injection, schedule: Q07DX002 (ip), vehicle: saline with Tween-80.
Where [3] appears, read: dose: 50.0 mg/kg/injection, schedule: Q07DX002 (ip), vehicle: saline with Tween-80.
Where [4] appears, read: dose: 100.0 mg/kg/injection, schedule: Q07DX002 (ip), vehicle: saline with Tween-80.
[5] abbreviates: dose: 200.0 mg/kg/injection, schedule: Q07DX002 (ip), vehicle: saline with Tween-80.
Setting [6] is: dose: 25.0 mg/kg/injection, schedule: Q07DX002 (ip), vehicle: saline.

For the compound `CC1=C[S+](c2ccccc2)c2cccc3cc4ccccc4c1c23` (stereo unspecified), the T/C is, setting by setting: (dose: 0.5 mg/kg/injection, schedule: Q07DX002 (ip), vehicle: saline with Tween-80) 109 % of control; (dose: 1.0 mg/kg/injection, schedule: Q07DX002 (ip), vehicle: saline with Tween-80) 162 % of control; (dose: 2.0 mg/kg/injection, schedule: Q07DX002 (ip), vehicle: saline with Tween-80) 151 % of control; (dose: 4.0 mg/kg/injection, schedule: Q07DX002 (ip), vehicle: saline with Tween-80) 114 % of control.
Take `CC(=O)Nc1ccc(S(=O)(=O)CO)cc1`: the T/C was 116 % of control and 97 % of control under setting [1]; 84 % of control and 107 % of control under setting [2]; 89 % of control under setting [3]; 88 % of control and 91 % of control under setting [4]; 89 % of control and 97 % of control under setting [5].
As to `O=C(Nc1nncs1)c1cccs1`, the T/C under setting [4] is 87 % of control and 88 % of control.
Consider `N[C@@H](Cc1ccc(N(CCCl)CCCl)cc1)C(=O)O`, for which the T/C is 81 % of control (dose: 2.0 mg/kg/injection, schedule: Q07DX002 (ip), vehicle: Klucel (hydroxypropylcellulose) (HPC)); 106 % of control (dose: 2.0 mg/kg/injection, schedule: Q07DX003 (ip), vehicle: saline); 51 % of control (dose: 2.5 mg/kg/injection, schedule: Q07DX003 (ip), vehicle: saline with Tween-80); 54 % of control and 61 % of control (dose: 3.75 mg/kg/injection, schedule: Q07DX002 (ip), vehicle: Klucel (hydroxypropylcellulose) (HPC)); 107 % of control (dose: 4.0 mg/kg/injection, schedule: Q07DX002 (ip), vehicle: Klucel (hydroxypropylcellulose) (HPC)); 44 % of control (dose: 5.0 mg/kg/injection, schedule: Q07DX003 (ip), vehicle: saline with Tween-80). The T/C is, setting by setting: (dose: 7.5 mg/kg/injection, schedule: Q07DX002 (ip), vehicle: Klucel (hydroxypropylcellulose) (HPC)) 33 % of control and 37 % of control; (dose: 15.0 mg/kg/injection, schedule: Q07DX002 (ip), vehicle: Klucel (hydroxypropylcellulose) (HPC)) 16 % of control; (dose: 16.0 mg/kg/injection, schedule: Q07DX002 (ip), vehicle: saline) 8 % of control (2×) and 11 % of control.
Regarding `CS(=O)(=O)c1ncc(Br)cn1`, the T/C by setting is: (dose: 6.25 mg/kg/injection, schedule: Q07DX002 (ip), vehicle: saline with Tween-80) 106 % of control; under setting [1], 76 % of control; under setting [3], 94 % of control; under setting [4], 113 % of control; under setting [5], 106 % of control.
For `O=C(O[Si](Cc1ccccc1)(Cc1ccccc1)Cc1ccccc1)N(CCCl)CCCl`, the T/C reads like this: under setting [2], 77 % of control and 102 % of control; under setting [4], 194 % of control; under setting [5], 112 % of control.
For the compound `COC1=C(C)C(=O)C2=C(C1=O)C(CO)N1C(C#N)C3CC4C(C1C2N1CCOC41)N3C` (stereo unspecified), the T/C was 67 % of control (dose: 0.25 mg/kg/injection, schedule: Q07DX002 (ip), vehicle: saline + alcohol); 109 % of control (dose: 0.5 mg/kg/injection, schedule: Q07DX002 (ip), vehicle: saline + alcohol); 153 % of control (dose: 2.0 mg/kg/injection, schedule: Q07DX002 (ip), vehicle: saline + alcohol); 87 % of control (dose: 4.0 mg/kg/injection, schedule: Q07DX002 (ip), vehicle: saline + alcohol).
With `Cc1nc(N)nc(N)c1-c1ccc(Cl)c(Cl)c1`, the T/C is, setting by setting: (dose: 1.25 mg/kg/injection, schedule: Q07DX002 (ip), vehicle: saline) 106 % of control; (dose: 2.5 mg/kg/injection, schedule: Q07DX002 (ip), vehicle: saline) 81 % of control and 102 % of control; (dose: 5.0 mg/kg/injection, schedule: Q07DX002 (ip), vehicle: saline) 50 % of control and 72 % of control; (dose: 10.0 mg/kg/injection, schedule: Q07DX002 (ip), vehicle: saline) 68 % of control and 69 % of control and 83 % of control; (dose: 10.0 mg/kg/injection, schedule: Q07DX002 (ip), vehicle: suspension in saline) 67 % of control; (dose: 20.0 mg/kg/injection, schedule: Q07DX002 (ip), vehicle: suspension in saline) 46 % of control. Also, the T/C (dose: 80.0 mg/kg/injection, schedule: Q07DX002 (ip), vehicle: saline) was 55 % of control.
Consider `CCC1(O)CC2CN(CCc3c([nH]c4ccccc34)C(C(=O)OC)(c3cc4c(cc3OC)N(C)C3C(O)(C(N)=O)C(O)C5(CC)C=CCN6CCC43C65)C2)C1` (stereo unspecified) (tested in a mixture with another compound), for which the T/C is 87 % of control (dose: 0.12 mg/kg/injection, schedule: Q07DX002 (ip), vehicle: water); 119 % of control and 94 % of control (dose: 0.5 mg/kg/injection, schedule: Q07DX002 (ip), vehicle: water); 36 % of control and 48 % of control (dose: 2.0 mg/kg/injection, schedule: Q07DX002 (ip), vehicle: water); 5 % of control and 15 % of control (dose: 4.0 mg/kg/injection, schedule: Q07DX002 (ip), vehicle: water).
`Brc1ccc(C[N+]23CN4CN(CN(C4)C2)C3)cc1`: the T/C is 121 % of control (dose: 12.5 mg/kg/injection, schedule: Q07DX003 (ip), vehicle: saline with Tween-80); 79 % of control (dose: 25.0 mg/kg/injection, schedule: Q07DX003 (ip), vehicle: saline with Tween-80); 108 % of control (dose: 50.0 mg/kg/injection, schedule: Q07DX003 (ip), vehicle: saline with Tween-80); 95 % of control (dose: 100.0 mg/kg/injection, schedule: Q07DX003 (ip), vehicle: saline with Tween-80); 62 % of control (dose: 200.0 mg/kg/injection, schedule: Q07DX003 (ip), vehicle: saline with Tween-80).
On to `COC1=C(Br)[C@H](O)[C@](O)(CC#N)C=C1Br`, for which the T/C is 52 % of control (dose: 8.75 mg/kg/injection, schedule: Q07DX002 (ip), vehicle: Klucel (hydroxypropylcellulose) (HPC)); 80 % of control (dose: 17.5 mg/kg/injection, schedule: Q07DX002 (ip), vehicle: Klucel (hydroxypropylcellulose) (HPC)); 49 % of control (dose: 35.0 mg/kg/injection, schedule: Q07DX002 (ip), vehicle: Klucel (hydroxypropylcellulose) (HPC)); 105 % of control (dose: 70.0 mg/kg/injection, schedule: Q07DX002 (ip), vehicle: Klucel (hydroxypropylcellulose) (HPC)); 70 % of control (dose: 140.0 mg/kg/injection, schedule: Q07DX002 (ip), vehicle: Klucel (hydroxypropylcellulose) (HPC)); 56 % of control (dose: 280.0 mg/kg/injection, schedule: Q07DX002 (ip), vehicle: Klucel (hydroxypropylcellulose) (HPC)).
For the compound `CN1C(=O)C(=Cc2ccc(O)cc2)C(=O)N(C)C1=O`, the T/C was 105 % of control under setting [1] and 53 % of control under setting [2].
In the case of `COc1nc(=O)n(C2C=CC(=O)O2)cc1F` (stereo unspecified), the T/C was 117 % of control (dose: 12.5 mg/kg/injection, schedule: Q07DX002 (ip), vehicle: saline); 113 % of control under setting [6]; 109 % of control (dose: 50.0 mg/kg/injection, schedule: Q07DX002 (ip), vehicle: saline).
In the case of `NC(=O)c1ncn2c(=O)n(CCCl)nnc12`, the T/C runs as follows: (dose: 6.0 mg/kg/injection, schedule: Q07DX002 (ip), vehicle: saline) 110 % of control; (dose: 6.25 mg/kg/injection, schedule: Q07DX002 (ip), vehicle: Klucel (hydroxypropylcellulose) (HPC)) 43 % of control and 65 % of control; (dose: 6.25 mg/kg/injection, schedule: Q07DX002 (ip), vehicle: saline) 47 % of control; (dose: 12.0 mg/kg/injection, schedule: Q07DX002 (ip), vehicle: saline) 51 % of control; (dose: 12.5 mg/kg/injection, schedule: Q07DX002 (ip), vehicle: Klucel (hydroxypropylcellulose) (HPC)) 22 % of control and 45 % of control; (dose: 25.0 mg/kg/injection, schedule: Q07DX002 (ip), vehicle: Klucel (hydroxypropylcellulose) (HPC)) 21 % of control and 36 % of control. Besides, the T/C under setting [6] was 55 % of control and 59 % of control; the T/C (dose: 50.0 mg/kg/injection, schedule: Q07DX002 (ip), vehicle: Klucel (hydroxypropylcellulose) (HPC)) is 2 % of control; the T/C (dose: 100.0 mg/kg/injection, schedule: Q07DX002 (ip), vehicle: saline) is 2 % of control.
On to `O=C(O)Cc1cc(O)cc2c(=O)cc(-c3ccccc3)oc12`, for which the T/C by setting is: (dose: 100.0 mg/kg/injection, schedule: Q07DX002 (ip), vehicle: Klucel (hydroxypropylcellulose) (HPC)) 52 % of control; (dose: 200.0 mg/kg/injection, schedule: Q07DX002 (ip), vehicle: Klucel (hydroxypropylcellulose) (HPC)) 63 % of control; (dose: 400.0 mg/kg/injection, schedule: Q07DX002 (ip), vehicle: Klucel (hydroxypropylcellulose) (HPC)) 103 % of control.
Take `CC1(O)C=CC(=O)C=C1`: the T/C (dose: 50.0 mg/kg/injection, schedule: Q07DX002 (ip), vehicle: water) was 114 % of control.
